Data reported in US20240226055A1, “TREATMENT OF DISORDERS WITH TASIMELTEON” (Vanda Pharmaceuticals Inc., priority 2018, published 2024).

How the values were obtained:
[1] = Phase III clinical study of an 8-hour advance in usual bedtime (jet lag disorder circadian challenge); format: in vivo, human
From the text: In the course of the trial, volunteers are subjected to a circadian challenge of an 8-hour advance in their usual bedtime, consistent with the circadian challenge induced in travelers crossing eight time zones (e.g., Los Angeles to London or Washington, DC to Moscow) and typically causing jet lag disorder.
The pre-specified primary endpoint used for this purpose is the amount of sleep time in the first two thirds of the night. Secondary endpoints include measures of various sleep parameters-total sleep time (TST), latency to persistent sleep (LPS), and wake after sleep onset (WASO)-as well as next day alertness, measured using the Karolinska Sleepiness Scale (KSS) and Visual Analog Scale (VAS).

[2] = Two-phase transatlantic travel study (jet lag, five or eight time zones); format: in vivo, human; details: for Objective TST2/3 Night 3, change from baseline: 20 mg for three consecutive nights prior to bedtime; for Objective TST2/3 Night 3, change from baseline / Objective TST2/3 All 3 nights, change from baseline: treated travel vs baseline observational travel
From the text: A two-phase transatlantic travel study of 25 subjects (tasimelteon n=13, placebo n=12) comprises a first phase that is an observational travel study to collect baseline data, and a second phase that is a treatment phase. Participants in the study travel either five or eight time zones from Washington, DC to London (five time zones) or San Francisco or Los Angeles to London (eight time zones). Participants stay at their destination for three nights and four days and during randomization receive 20 mg of tasimelteon for three consecutive nights prior to their bedtime. Efficacy is monitored by PSG as well as sleep and wake questionnaire scales.
The primary endpoint of the study is TST for the first 2/3 of the night(s) most likely to be disrupted. These are, from Table 2, Night 3, followed by Night 1 and Night 2.
Measures of global function, including Patient Global Impression of Severity (PGI-S) and KSS also favor tasimeltcon.

[3] = 20 mg dose, 8-hour bedtime advance, difference from placebo
[4] = 20 mg dose, 8-hour bedtime advance, treatment group value
[5] = 8-hour phase advance, difference from placebo
[6] = 8-hour phase advance, treatment group value
[7] = 20 mg for three consecutive nights, Post-Sleep Questionnaire
[8] = 20 mg for three consecutive nights, difference from placebo
[9] = Post-Sleep Questionnaire, difference from placebo

## CCC(=O)NC[C@@H]1C[C@H]1c1cccc2c1CCO2 [Hetlioz ®, tasimelteon]
[1]; 20 mg dose, 8-hour bedtime advance, healthy volunteers, treatment group value
  PSG TST2/3 (sleep time in first two thirds of the night, primary endpoint): 216.4 min
[1]; 20 mg dose, 8-hour bedtime advance, Karolinska Sleepiness Scale, treatment group value
  KSS (1-9) average, next day alertness: 4.0
[1]; 20 mg dose, 8-hour bedtime advance, Visual Analog Scale, treatment group value
  VAS (0-100) average, next day alertness: 60.8
[1]; [3]
  KSS (1-9) average, Diff vs placebo: −0.53
  PSG LPS, Diff vs placebo: -15.08 min
  PSG TST2/3, Diff vs placebo: 60.31 min
  PSG TSTfull, Diff vs placebo: 85.46 min
  PSG WASO, Diff vs placebo: -74.58 min
  VAS (0-100) average, Diff vs placebo: 6.59
[1]; 20 mg dose, 8-hour bedtime advance, difference from placebo, listed as tasimelteon
  PSG TSTfull, Diff vs placebo: 85 min
[1]; [4]
  PSG LPS (latency to persistent sleep): 21.8 min
  PSG TSTfull (total sleep time): 315.8 min
  PSG WASO (wake after sleep onset): 144.6 min
[1]; [5]
  PSG REMTotal, Difference vs placebo: 13.7 min
  REMAccumulate, Difference vs placebo: -53.3 min
  REMAchieved, Difference vs placebo: 24.5%
[1]; [6]
  PSG REMTotal (total REM sleep period): 48.9 min
  REMAccumulate (time required to accumulate 30 minutes of REM sleep): 318.7 min
  REMAchieved: 76.1%
[2]; listed as HETLIOZ ®
  Objective TST2/3 Night 3, change from baseline: 76.2 min
[2]; listed as Tasimelteon
  Objective TST2/3 Night 3, change from baseline: 76 min
[2]; 20 mg for three consecutive nights, Karolinska Sleepiness Scale
  Global measures KSS Day 4, change from baseline: −1.69
[2]; 20 mg for three consecutive nights, Patient Global Impression of Severity
  Global measures PGI-S Day 3, change from baseline: −0.71
[2]; [7]
  Subjective Sleep Latency Night 3, change from baseline: −20.6
  Subjective Sleep Quality Night 3, change from baseline: 1.31
  Subjective TSTFull All 3 Nights, change from baseline: 240.0
  Subjective TSTFull Night 3, change from baseline: 111.9
  Subjective WASO Night 3, change from baseline: −81.1
[2]; [8]
  Objective TST2/3 All 3 nights, change from baseline, Difference vs placebo: 90.6 min
  Objective TST2/3 Night 3, change from baseline, Difference vs placebo: 34.8 min
[2]; 20 mg for three consecutive nights, listed as HETLIOZ ®
  Objective TST2/3 All 3 nights, change from baseline: 131.4 min
[2]; 20 mg for three consecutive nights, listed as Tasimelteon
  Objective TST2/3 All 3 nights, change from baseline: 131 min
[2]; Karolinska Sleepiness Scale, difference from placebo
  Global measures KSS Day 4, change from baseline, Difference vs placebo: −1.00
[2]; Patient Global Impression of Severity, difference from placebo
  Global measures PGI-S Day 3, change from baseline, Difference vs placebo: −0.63
[2]; [9]
  Subjective Sleep Latency Night 3, change from baseline, Difference vs placebo: −26.5
  Subjective Sleep Quality Night 3, change from baseline, Difference vs placebo: 0.95
  Subjective TSTFull All 3 Nights, change from baseline, Difference vs placebo: 174.9
  Subjective TSTFull Night 3, change from baseline, Difference vs placebo: 78.5
  Subjective WASO Night 3, change from baseline, Difference vs placebo: −56.4
